According to PubChem BioAssay (NCI):
“And” between values parts separate entries of the source, which are not always exact repeats. Identical values can stand only once.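 Results reflect a 48-hour exposure of cells in 96-well plates to compound at five concentrations. GI50 marks 50% less growth. The concentration for full growth arrest is given as TGI.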

Assays:
Assay in all cases: NCI tumour cell line growth inhibition, 48 h
[1] = system: HL-60(TB) leukemia
[2] = system: M14 melanoma
[3] = system: HOP-92 NSCLC
[4] = system: SK-MEL-5 melanoma
[5] = system: HCT-116 colon
[6] = system: MDA-MB-231 breast
[7] = system: ACHN renal
[8] = system: MOLT-4 leukemia
[9] = system: NCI-H226 lung
[10] = system: SF-539 CNS

Row | SMILES | TGI [1] | GI50 [2] | TGI [2] | TGI [3] | TGI [4] | TGI [5] | GI50 [6] [µM] | TGI [6] [µM] | GI50 [7] [µM] | TGI [8] [µM] | TGI [9] [µM] | TGI [7] [µM] | TGI [10] [µM] | GI50 [1] [µM] | GI50 [10] [µM] | GI50 [8] [µM] | GI50 [3] [µM] | GI50 [4] [µM] | GI50 [5] [µM] | GI50 [9] [µM]
1 | COc1cccc2c1C(=N)c1c(O)c3c(c(O)c1C2=O)C[C@@](O)(C(C)=O)C[C@@H]3OC1CC(N)C(O)C(C)O1 (some centres undefined) | 0.287 µM and 0.192 µM | 0.705 µM and 0.206 µM | 4.58 µM and 1.59 µM | 2.71 µM and 3.58 µM | 1.55 µM and 1.74 µM and 1.98 µM | 1.77 µM and 2.53 µM and 10.4 µM | 0.445 | 2.18 | 0.472 | – | – | – | – | – | – | – | – | – | – | –
2 | O=C(CN1C(=O)c2ccccc2C1=O)NC1(C(=O)O)CCCC1 | > 100 µM | – | > 100 µM | – | > 100 µM | > 100 µM | – | > 100 | – | > 100 | > 100 | > 100 | – | – | – | – | – | – | – | –
3 | CC1CCCC2(O1)OC1CC(=O)OC1C1=C2C(=O)c2ccccc2C1=O (centres undefined) | 3.48 µM | – | 7.89 µM | – | 4.14 µM | – | – | – | – | 4.09 | 4.51 | 15 | 19.9 | – | – | – | – | – | – | –
4 | CC(=O)NC1C(=O)CC(c2ccccc2)N(C)C1c1ccccc1 (centres undefined) | > 100 µM | – | > 100 µM | > 100 µM | > 100 µM | > 100 µM | – | – | – | > 100 | > 100 | > 100 | > 100 | – | – | – | – | – | – | –
5 | NCCN.O=N[O-].O=N[O-].O=N[O-].O=N[O-].[Co+3].[K+] | > 100 µM | > 100 µM | > 100 µM | > 100 µM | > 100 µM | > 100 µM | – | – | > 100 | > 100 | – | > 100 | > 100 | > 100 | > 100 | > 100 | 85.7 | > 100 | > 100 | –
6 | CC(=O)OC12CCCCC1C1(CCCC1)NC2=O (centres undefined) | > 100 µM | – | > 100 µM | – | – | > 100 µM | – | – | – | > 100 | > 100 | > 100 | > 100 | – | – | – | – | – | – | –
7 | Cn1c(N)cc(=O)nc1N | > 100 µM | – | > 100 µM | – | > 100 µM | > 100 µM | – | > 100 | – | > 100 | > 100 | > 100 | > 100 | – | – | – | – | – | – | –
8 | CN(C)CCCn1c2c(c3ccc([N+](=O)[O-])cc3c1=O)C(=O)c1ccccc1-2 | – | 8.54 µM | > 100 µM | > 100 µM | 16.6 µM | 21.8 µM | 15.9 | 38.1 | 4.54 | > 100 | 24 | 17.8 | – | – | – | 0.696 | 9.78 | 3.79 | 6.48 | 6.82
9 | Cc1nc2c(=O)n(C)c(=O)nc-2n(-c2ccc(Cl)cc2)c1C | > 100 µM | – | > 100 µM | > 100 µM | > 100 µM | – | – | – | – | – | > 100 | > 100 | > 100 | – | – | – | – | – | – | –
10 | COC(=O)c1c(OC(=O)c2ccccc2)noc1CC(=O)OC1C=CCCC1 (centres undefined) | > 100 µM | – | > 100 µM | – | 81.7 µM | > 100 µM | – | – | – | > 100 | > 100 | > 100 | > 100 | – | – | – | – | – | – | –
11 | CC/C(=C(\c1ccccc1)c1ccc(OCC[N+](C)(C)C)cc1)c1ccccc1 | 6.13 µM | – | 30.1 µM | – | 16.4 µM | 31.7 µM | – | – | – | 36.4 | 26.7 | 34.6 | 40.6 | – | – | – | – | – | – | –
